Results from US20240327380A1, “BTK INHIBITORS” (BIOGEN MA INC., priority 2020, published 2024).
Read-outs that look alike come from different tables or passages of the source.

Assays:
[1] = biological target: T1, active BTK enzyme (Upstate 14-552) (Homo sapiens, UniProt Q06187); assay: In Vitro BTK Kinase Assay: Btk-PolyGAT-LS Assay; assay type: biochemical; settings: ATP 10 μM, polyGAT 100 nM, BTK 0.25 nM, 30 minutes, TRF readout
T1 construct: purchased Upstate 14-552
In short: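 Active BTK (0.25 nM) phosphorylates fluorescein-polyGAT peptide (100 nM) with 10 µM ATP in Tris-HCl pH 7.5/MgCl2/DTT buffer, 30 min, EDTA stop. Phosphopeptide detected by TR-FRET with Tb-PY20 antibody after 45 min at room temperature; IC50 from four-parameter fit against DMSO and EDTA controls.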

[2] = test system: CD69 expression on CD19+ B cells in human whole blood; assay: In Vitro whole blood CD69 Assay; assay type: cell-based; settings: B-cell
Method: In Vitro whole blood CD69 Assay
Human heparinized venous blood from health donors was aliquoted into 96-well plate and “spiked” with serial dilutions of formula I compounds in DMSO or with DMSO without drug. The final concentration of DMSO in all wells was 0.1%. The plate was incubated at 37° C. for 30 min. Drug-containing samples were stimulated with […] mouse anti-human IgD-dextran (1A62) or […] polyclonal rabbit F(ab′)2 anti-human IgD. Phosphate-buffered saline (PBS) was added to the negative control unstimulated sample and the plates were incubated overnight (18 to 22 hours) at 37° C. Cells were stained with fluorochrome-conjugated anti-CD19 and anti-CD69 antibodies. Lyse/fix solution was used to remove red blood cells by hypotonic lysis and to fix the remaining cells, which were then analyzed by flow cytometry. CD19+ B cells were gated and analyzed for CD69 expression. The percentage of B cells expressing CD69 was plotted versus the log 10 of the concentration of the drug and the best-fit curves (variable Hill slope) were generated to obtain the IC50 value.

[3] = human heparinized whole blood, anti-human IgD stimulation overnight, percentage of CD19+ B cells expressing CD69, flow cytometry, read-out: IC50

T1 sequence (Q06187 whole entry): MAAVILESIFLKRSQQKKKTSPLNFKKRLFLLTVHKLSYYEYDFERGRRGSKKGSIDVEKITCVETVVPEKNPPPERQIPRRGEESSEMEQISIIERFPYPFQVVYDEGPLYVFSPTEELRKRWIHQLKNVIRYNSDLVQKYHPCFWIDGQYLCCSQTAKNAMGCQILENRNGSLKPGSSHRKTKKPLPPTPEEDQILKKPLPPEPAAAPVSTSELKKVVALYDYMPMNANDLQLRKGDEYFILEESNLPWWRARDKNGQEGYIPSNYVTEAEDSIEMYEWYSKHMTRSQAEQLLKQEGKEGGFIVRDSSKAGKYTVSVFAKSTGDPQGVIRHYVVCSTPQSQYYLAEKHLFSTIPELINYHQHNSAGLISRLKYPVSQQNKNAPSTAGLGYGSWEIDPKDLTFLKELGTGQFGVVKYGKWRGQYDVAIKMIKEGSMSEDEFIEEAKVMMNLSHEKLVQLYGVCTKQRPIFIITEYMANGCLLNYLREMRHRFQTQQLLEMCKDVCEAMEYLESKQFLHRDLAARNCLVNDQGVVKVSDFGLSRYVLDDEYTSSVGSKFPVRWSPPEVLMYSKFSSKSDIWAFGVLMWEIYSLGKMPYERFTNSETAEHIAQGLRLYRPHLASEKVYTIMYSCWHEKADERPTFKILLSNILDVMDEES

| IC50 [1] | IC50 [2, 3] | SMILES | IC50 ([2]; Homo sapiens) |
| --- | --- | --- | --- |
| 1 to 10 nM | > 1000 nM | C=CC(=O)N1CCCC12CCN(c1cnccc1-c1ccc(CNC(=O)c3cn(C(C)(C)C)nn3)c(C)c1)C2 (stereo not drawn) [Example 3, N-(4-(3-(1-acryloyl-1,7-diazaspiro[4.4]nonan-7-yl)pyridin-4-yl)-2-methylbenzyl)-1-(tert-butyl)-1H-1,2,3-triazole-4-carboxamide] | – |
| ≤ 1 nM | > 1000 nM | C=CC(=O)N(C)[C@@H]1CCCCN(c2cnccc2-c2ccc(CNC(=O)c3cn(C(C)(C)C)nn3)c(C)c2)C1 [Example 51, (R)-1-(tert-butyl)-N-(2-methyl-4-(3-(3-(N-methylacrylamido)azepan-1-yl)pyridin-4-yl)benzyl)-1H-1,2,3-triazole-4-carboxamide] | – |
| 1 to 10 nM | > 1000 nM | C=CC(=O)N1CCCC(c2cnccc2-c2ccc(CNC(=O)c3nc(C4(C)CC4)no3)c(C)c2)C1 (stereo not drawn) [Example 29, N-(4-(3-(1-acryloylpiperidin-3-yl)pyridin-4-yl)-2-methylbenzyl)-3-(1-methylcyclopropyl)-1,2,4-oxadiazole-5-carboxamide] | – |
| 1 to 10 nM | 100 to 1000 nM | C=CC(=O)N1CCCC(c2cnccc2-c2ccc(CNC(=O)c3noc(C4(C)CC4)n3)c(C)c2)C1 (stereo not drawn) [Example 26, N-(4-(3-(1-acryloylpiperidin-3-yl)pyridin-4-yl)-2-methylbenzyl)-5-(1-methylcyclopropyl)-1,2,4-oxadiazole-3-carboxamide] | – |
| 1 to 10 nM | 100 to 1000 nM | C=CC(=O)N1CCCC(c2cnccc2-c2ccc(CNC(=O)c3cc(C(C)(C)C)on3)c(C)c2)C1 (stereo not drawn) [Example 32, N-(4-(3-(1-acryloylpiperidin-3-yl)pyridin-4-yl)-2-methylbenzyl)-5-(tert-butyl)isoxazole-3-carboxamide] | – |
| 1 to 10 nM | > 1000 nM | C=CC(=O)N(C)C1CCCN(c2cnccc2-c2ccc(CNC(=O)c3ccc(C(F)(F)F)nc3)c(C)c2)C1 (stereo not drawn) [Example 41, N-(2-methyl-4-(3-(3-(N-methylacrylamido)piperidin-1-yl)pyridin-4-yl)benzyl)-6-(trifluoromethyl)nicotinamide] | – |
| ≤ 1 nM | 100 to 1000 nM | C=CC(=O)N(C)C1CCCN(c2cnccc2-c2ccc(CNC(=O)c3cc(C(C)(C)C)on3)c(C)c2)C1 (stereo not drawn) [Example 14, 5-(tert-butyl)-N-(2-methyl-4-(3-(3-(N-methylacrylamido)piperidin-1-yl)pyridin-4-yl)benzyl)isoxazole-3-carboxamide] | – |
| 1 to 10 nM | > 1000 nM | C=CC(=O)N(C)C1CCCN(c2cnccc2-c2ccc(CNC(=O)c3ccn(C(C)(C)C)n3)c(C)c2)C1 (stereo not drawn) [Example 44, 1-(tert-butyl)-N-(2-methyl-4-(3-(3-(N-methylacrylamido)piperidin-1-yl)pyridin-4-yl)benzyl)-1H-pyrazole-3-carboxamide] | – |
| ≤ 1 nM | 100 to 1000 nM | C=CC(=O)N(C)C1CCCN(c2cnccc2-c2ccc(CNC(=O)c3cc(C(C)(C)C)no3)c(C)c2)C1 (stereo not drawn) [Example 46, 3-(tert-butyl)-N-(2-methyl-4-(3-(3-(N-methylacrylamido)piperidin-1-yl)pyridin-4-yl)benzyl)isoxazole-5-carboxamide] | – |
| ≤ 1 nM | 100 to 1000 nM | Cc1cc(-c2ccncc2N2CCN(C(=O)/C=C/CN(C)C)CC2)ccc1CNC(=O)c1nc(C2(CF)CC2)no1 [Example 94, (E)-N-(4-(3-(4-(4-(dimethylamino)but-2-enoyl)piperazin-1-yl)pyridin-4-yl)-2-methylbenzyl)-3-(1-(fluoromethyl)cyclopropyl)-1,2,4-oxadiazole-5-carboxamide] | – |
| ≤ 1 nM | < 100 nM | CN(C)C/C=C/C(=O)N1CCN(c2cnccc2-c2ccc(CNC(=O)c3noc(C(C)(C)C)n3)c(C(F)(F)F)c2)CC1 [Example 90, (E)-5-(tert-butyl)-N-(4-(3-(4-(4-(dimethylamino)but-2-enoyl)piperazin-1-yl)pyridin-4-yl)-2-(trifluoromethyl)benzyl)-1,2,4-oxadiazole-3-carboxamide] | – |
| 1 to 10 nM | 100 to 1000 nM | Cc1cc(-c2ccncc2N2CCN(C(=O)/C=C/CN(C)C)CC2)ccc1CNC(=O)c1noc(C(C)(C)C)c1F [Example 95, (E)-5-(tert-butyl)-N-(4-(3-(4-(4-(dimethylamino)but-2-enoyl)piperazin-1-yl)pyridin-4-yl)-2-methylbenzyl)-4-fluoroisoxazole-3-carboxamide] | – |
| ≤ 1 nM | 100 to 1000 nM | C=CC(=O)N(C)C1CCCN(c2cnccc2-c2ccc(CNC(=O)c3nc(C(C)(C)C)no3)c(C)c2F)C1 (stereo not drawn) [Example 18, 3-(tert-butyl)-N-(3-fluoro-2-methyl-4-(3-(3-(N-methylacrylamido)piperidin-1-yl)pyridin-4-yl)benzyl)-1,2,4-oxadiazole-5-carboxamide] | – |
| 1 to 10 nM | 100 to 1000 nM | Cc1cc(-c2ccncc2N2CCN(C(=O)/C=C/CN(C)C)CC2)ccc1[C@@H](C)NC(=O)c1noc(C(C)(C)C)n1 [Example 86, (R,E)-5-(tert-butyl)-N-(1-(4-(3-(4-(4-(dimethylamino)but-2-enoyl)piperazin-1-yl)pyridin-4-yl)-2-methylphenyl)ethyl)-1,2,4-oxadiazole-3-carboxamide] | – |
| 1 to 10 nM | 100 to 1000 nM | C=CC(=O)N1CCC(c2cnccc2-c2ccc(CNC(=O)c3noc(C(C)(C)C)n3)c(C)c2)CC1 [Example 35, N-(4-(3-(1-acryloylpiperidin-4-yl)pyridin-4-yl)-2-methylbenzyl)-5-(tert-butyl)-1,2,4-oxadiazole-3-carboxamide] | – |
| ≤ 1 nM | 100 to 1000 nM | C=CC(=O)N(C)C1CCCN(c2cnccc2-c2ccc(CNC(=O)c3coc(C(C)(C)C)n3)c(C)c2)C1 (stereo not drawn) [Example 37, 2-(tert-butyl)-N-(2-methyl-4-(3-(3-(N-methylacrylamido)piperidin-1-yl)pyridin-4-yl)benzyl)oxazole-4-carboxamide] | – |
| 1 to 10 nM | > 1000 nM | C=CC(=O)N1CCC[C@H](c2cnccc2-c2ccc(CNC(=O)c3cc(C(C)(C)C)on3)c(C)c2)C1 (single isomer, unassigned) [Example 33] | – |
| ≤ 1 nM | < 100 nM | C=CC(=O)N(C)C1CCCN(c2cncnc2-c2ccc(CNC(=O)c3cn(C(C)(C)C)nn3)c(C)c2)C1 (stereo not drawn) [Example 8, 1-(tert-butyl)-N-(2-methyl-4-(5-(3-(N-methylacrylamido)piperidin-1-yl)pyrimidin-4-yl)benzyl)-1H-1,2,3-triazole-4-carboxamide] | – |
| 1 to 10 nM | > 1000 nM | C=CC(=O)N1CCC[C@H](c2cnccc2-c2ccc(CNC(=O)c3cn(C(C)(C)C)nn3)c(C)c2)C1 (single isomer, unassigned) [Example 24] | – |
| ≤ 1 nM | < 100 nM | Cc1cc(-c2ncncc2N2CCN(C(=O)/C=C/CN(C)C)CC2)ccc1CNC(=O)c1nc(C2(C)CC2)no1 [Example 85, (E)-N-(4-(5-(4-(4-(dimethylamino)but-2-enoyl)piperazin-1-yl)pyrimidin-4-yl)-2-methylbenzyl)-3-(1-methylcyclopropyl)-1,2,4-oxadiazole-5-carboxamide] | – |

| SMILES | IC50 [1] | IC50 [2, 3] | IC50 ([2]; Homo sapiens) |
| --- | --- | --- | --- |
| C=CC(=O)N(C)C1CCCN(c2cnccc2-c2ccc(CNC(=O)c3nc(C(C)(C)C)co3)c(C)c2)C1 (stereo not drawn) [Example 39, 4-(tert-butyl)-N-(2-methyl-4-(3-(3-(N-methylacrylamido)piperidin-1-yl)pyridin-4-yl)benzyl)oxazole-2-carboxamide] | ≤ 1 nM | – | 100 to 1000 nM |
